From patent US20230027066A1 (Urovant Sciences GmbH, priority 2019, published 2023)

Tested on: men and women with overactive bladder
Experiment: Phase 3 study of vibegron 75 mg vs placebo and tolterodine ER 4 mg, 12 weeks, efficacy (voiding and urine volume diary)
Assay type: in vivo, human
Conditions: for Urgency 50% responders, Active - Placebo CMH Difference / Patients with at Least 50% Reduction in Urgency Episodes, Adjusted (%) / Patients with at Least 50% Reduction in Urgency Episodes, Adjusted n / Patients with at Least 50% Reduction in Urgency Episodes, Unadjusted (%) / Patients with at Least 50% Reduction in Urgency Episodes, Unadjusted n: Dry population; for Urgency Episodes, Week 12 CFB Mean: descriptive statistics; for Micturitions: LS Mean (95% CI): Table 32, week 12
Experimental: Enrollment of patients included individuals with OAB Wet (those with UUI, the involuntary loss of urine accompanied by urgency) and OAB Dry (those without UUI). A total of 1,518 patients were randomized across 215 study sites into one of three groups for a 12-week treatment period.
The study consisted of a Screening Period (1 to 5 weeks), a single-blind Run-in Period (2 weeks), a randomized double-blind Treatment Period (12 weeks), and a Follow-up Period (4 weeks).
Tolterodine ER 4 mg was the active control. […] Between the Baseline and Week 12 Visits, patients had study assessments at Week 4 and Week 8.
The Patient Voiding Diary was used by participants (via the eDiary or paper Diary) to record the frequency of daily OAB symptoms including all micturitions, urgency, incontinence, and main reason for incontinence by selecting the respective box for each symptom occurring during the course of a given day and night.
Urine volume data were collected separately by patients using the Urine Volume component of the eDiary, or the paper Urine Volume Chart. The Urine Volume Chart is a tool used in clinical practice and clinical investigation to assess voiding functions over a 24-hour period and is regarded as a useful instrument in the investigation of patients with voiding symptoms. Urine volume may be collected during any one (1) of the 7 Diary Days prior to the visit, and it should be recorded for ˜24 hours starting from the time the patient gets up for the day and continues until the time the patient gets up for the day on the next day.
For the purpose of this study, the number of micturitions was defined as the number of times a patient has voided in the toilet as indicated on the Patient Voiding Diary. Average daily micturitions were calculated using the daily entries in the Patient Voiding Diary, which was completed over the 7 days prior to each study visit. Average daily number of micturitions were calculated as the total number of micturitions that occurred on a Complete Diary Day divided by the number of Complete Diary Days in the Patient Voiding Diary. A complete diary day required confirmation by the patient in the Patient Voiding Diary that all voids and leakages had been recorded for the diary day. Baseline was defined as the average number of micturitions occurring during the last evaluable diary prior to the Baseline Visit.
The number of UUI episodes was defined as the number of times a patient had checked “urge” as the reason for accidental urine leakage. Average daily UUI episodes at each study visit were calculated in the same manner as described above for the micturition endpoint. The UUI endpoint were analyzed using only OAB Wet patients.
For the analysis of the co-primary endpoints (change from baseline in average number of daily micturitions at Week 12 and change from baseline in average number of daily urge urinary incontinence episodes at Week 12, and placebo adjustment of each), a mixed model for repeated measure (MMRM) with restricted maximum likelihood estimation was used. This model corrects for dropout and accounts for the fact that measurements taken on the same patient over time tend to be correlated by using all available information on patients within the same covariate set to derive an estimate of the treatment effect for a dropout-free population. The analysis model for each efficacy endpoint includes terms for treatment, visit, OAB Type (Wet vs Dry), Sex (Female vs Male), Region (US vs Rest of World), baseline score, and interaction of visit by treatment.
Primary inferences were drawn from treatment differences for the changes from baseline derived from the MMRM models at Week 12. As part of secondary objectives, the treatment differences for each post baseline visit were also derived using the same MMRM model. […]

[1] = No prior anticholinergic use during the prior 12 months
[2] = No prior mirabegron use during the prior 12 months
[3] = Overall, events of Events/Censored
[4] = Prior anticholinergic use during the prior 12 months
[5] = Prior mirabegron use during the prior 12 months
[6] = Week 2, events of Events/Censored
[7] = Week 4, events of Events/Censored

Cc1ccc(O)c([C@H](CCN(C(C)C)C(C)C)c2ccccc2)c1 [Tolterodine ER, tolterodine, reference compound]
Urgency 50% responders, Active - Placebo CMH Difference (baseline to Week 2): 2.8
Patients with at Least 50% Reduction in Urgency Episodes, Adjusted (%) (baseline to Week 4): 20.6%
Patients with at Least 50% Reduction in Urgency Episodes, Adjusted n (baseline to Week 4): 20
Patients with at Least 50% Reduction in Urgency Episodes, Unadjusted (%) (baseline to Week 4): 25.5%
Patients with at Least 50% Reduction in Urgency Episodes, Unadjusted n (baseline to Week 4): 25
Urgency 50% responders, Active - Placebo CMH Difference (baseline to Week 4): 3.5
Patients with at Least 50% Reduction in Urgency Episodes, Adjusted (%) (baseline to Week 8): 28.5%
Patients with at Least 50% Reduction in Urgency Episodes, Adjusted n (baseline to Week 8): 28
Patients with at Least 50% Reduction in Urgency Episodes, Unadjusted (%) (baseline to Week 8): 30.6%
Patients with at Least 50% Reduction in Urgency Episodes, Unadjusted n (baseline to Week 8): 30
Urgency 50% responders, Active - Placebo CMH Difference (baseline to Week 8): 8.7
Patients with at Least 50% Reduction in Urgency Episodes, Adjusted (%) (baseline to Week 12): 29.0%
Patients with at Least 50% Reduction in Urgency Episodes, Adjusted n (baseline to Week 12): 28
Patients with at Least 50% Reduction in Urgency Episodes, Unadjusted (%) (baseline to Week 12): 32.7%
Patients with at Least 50% Reduction in Urgency Episodes, Unadjusted n (baseline to Week 12): 32
Urgency 50% responders, Active - Placebo CMH Difference (baseline to Week 12): 5.8
Urgency Episodes, Week 12 CFB Mean (Males with BPH): −3.29
Urgency Episodes, Week 12 CFB Mean (Males without BPH): −2.32
Urgency Episodes, Week 12 CFB Mean (No Prior ACH Use in last 12 Mo.): −2.62
Urgency Episodes, Week 12 CFB Mean (No Prior B3 Agonist Use in last 12 Mo.): −2.56
Micturitions, 12-week change [1]: −1.8
UUI Episodes, 12-week change [1]: −1.9
Micturitions, 12-week change [2]: −1.8
UUI Episodes, 12-week change [2]: −1.8
Overall Time to First 50% Decrease in Urgency Episodes, 25th Percentile (Overall): 4.3 weeks
Overall Time to First 50% Decrease in Urgency Episodes, 50th Percentile (Overall): 12.6 weeks
Overall Time to First 50% Decrease in Urgency Episodes, Median (95% CI) (Overall): 12.6 (12.3 to 12.9) weeks
Overall Time to First 100% Decrease in UUI Episodes, 25th Percentile (Overall): 12.1 weeks
Overall Time to First 100% Decrease in UUI Episodes, 75th Percentile (Overall): 16.0 weeks
Overall Time to First 100% Decrease in UUI Episodes, Median (95% CI) (Overall): 13.1 (12.7 to 16.0) weeks
Urgency Episodes, Week 12 CFB Mean (Overall): −2.57
First 50% Decrease in Urgency Episodes, Events [3]: 187/230
First 100% Decrease in UUI Episodes, Events [3]: 93/226
Urgency Episodes, Week 12 CFB Mean (Prior ACH Use in last 12 Mo.): −2.23
Urgency Episodes, Week 12 CFB Mean (Prior B3 Agonist Use in last 12 Mo.): −2.72
Micturitions, 12-week change [4]: −1.52
UUI Episodes, 12-week change [4]: −0.98
Micturitions, 12-week change [5]: −1.30
UUI Episodes, 12-week change [5]: −0.65
Micturitions: LS Mean (95% CI) (Age <65 years): −0.2 (−0.6 to 0.2)
Micturitions: LS Mean (95% CI) (Age ≥65 years): −0.3 (−0.8 to 0.2)
Micturitions: LS Mean (95% CI) (Age ≥75 years (posthoc analysis)): −0.4 (−1.4 to 0.6)
Micturitions: LS Mean (95% CI) (Females): −0.3 (−0.7 to 0.0)
Micturitions: LS Mean (95% CI) (Males): 0.1 (−0.7 to 0.9)
Micturitions: LS Mean (95% CI) (Non-White): −0.1 (−0.8 to 0.6)
Micturitions: LS Mean (95% CI) (OAB Type: Dry): −0.3 (−1.0 to 0.3)
Micturitions: LS Mean (95% CI) (OAB Type: Wet): −0.3 (−0.6 to 0.1)
Micturitions: LS Mean (95% CI) (Overall): −0.3 (−0.6 to 0.1)
Micturitions: LS Mean (95% CI) (Region: Non-US): 0.4 (−0.6 to 1.4)
Micturitions: LS Mean (95% CI) (Region: US): −0.3 (−0.7 to 0.0)
Micturitions: LS Mean (95% CI) (White): −0.3 (−0.7 to 0.0)
Average Daily Number of Total Incontinence, Mean (SD) (Week 2): 2.75 (2.743)
Average daily number of urgency episodes, Mean (SD) (Week 2): 6.30 (3.989)
Average volume voided per micturition, Active - Placebo LS Mean Difference (Week 2): 10.2 mL
Change from Baseline in Average Daily Number of Total Incontinence, LS Mean (SE) (Week 2): −1.3 (0.15)
Change from baseline in average daily number of urgency episodes, LS Mean (Week 2): −1.5
Change from baseline in average volume voided per micturition, LS Mean (SE) (Week 2): 12.5 (3.20) mL
Estimated Incidence of Subjects with 50% Decrease from Baseline (urgency episodes) (Week 2): 18.0
Estimated Incidence of Subjects with 100% Decrease from Baseline (UUI episodes) (Week 2): 5.6
Total Incontinence, Active - Placebo LS Mean Difference (SE) (Week 2): −0.5 (0.15)
Urgency episodes, Active - Placebo LS Mean Difference (Week 2): −0.6
First 50% Reduction in Urgency Episodes, Events [6]: 75/342
First 100% Reduction in UUI Episodes, Events [6]: 18/301
Average volume voided per micturition, Week 2 Mean (SD) (Week 2, vibegron 75 mg, tolterodine ER 4 mg): 156.7 (71.23) mL
Average Daily Number of Total Incontinence, Mean (SD) (Week 4): 2.54 (2.784)
Average daily number of urgency episodes, Mean (SD) (Week 4): 6.00 (4.097)
Average volume voided per micturition, Active - Placebo LS Mean Difference (Week 4): 8.9 mL
Average volume voided per micturition, Week 4 Mean (SD) (Week 4): 160.2 (72.76) mL
Change from Baseline in Average Daily Number of Total Incontinence, LS Mean (SE) (Week 4): −1.6 (0.15)
Change from baseline in average daily number of urgency episodes, LS Mean (Week 4): −1.8
Change from baseline in average volume voided per micturition, LS Mean (SE) (Week 4): 13.3 (3.39) mL
Estimated Incidence of Subjects with 50% Decrease from Baseline (urgency episodes) (Week 4): 19.4
Estimated Incidence of Subjects with 100% Decrease from Baseline (UUI episodes) (Week 4): 7.6
Total Incontinence, Active - Placebo LS Mean Difference (SE) (Week 4): −0.5 (0.15)
Urgency episodes, Active - Placebo LS Mean Difference (Week 4): −0.7
First 50% Reduction in Urgency Episodes, Events [7]: 81/336
First 100% Reduction in UUI Episodes, Events [7]: 24/295
Average Daily Number of Total Incontinence, Mean (SD) (Week 8): 2.20 (2.673)
